This is an account of results in patent publication US10004701B2, “Methods and compositions for treating infection” (UNIVERSITY OF ROCHESTER, priority 2012, dated 2018).

Counter-ions that a name gives are not always drawn. Like-named read-outs stand apart in the source and are kept apart here.

Assay in all cases: AK assay 384-well format, Prestwick library screening
The test system of one test is E. faecium. It counts as cell-based, Enterococcus faecium. To be noted: Enterococcus faecium, 3 h, 50 μM final drug concentration.
Test [1] deals with S. aureus strain USA300-0114. It counts as cell-based, Staphylococcus aureus. To be noted: Staphylococcus aureus, USA300, 3 h, 50 μM final drug concentration.
Another test relates to K. pneumoniae. It is filed as cell-based, Klebsiella pneumoniae. Particulars: Klebsiella pneumoniae, 3 h, 50 μM final drug concentration.
In test [2] the test system is A. baumannii strain 98-37-09. It counts as cell-based, Acinetobacter baumannii. Particulars: Acinetobacter baumannii, 983709, 3 h, 50 μM final drug concentration.
Another test concerns P. aeruginosa. It counts as cell-based, Pseudomonas aeruginosa. To be noted: Pseudomonas aeruginosa, 3 h, 50 μM final drug concentration.
Another test deals with E. cloacae. It counts as cell-based, Enterobacter cloacae. To be noted: Enterobacter cloacae, 3 h, 50 μM final drug concentration.
Another test relates to E. coli. It is filed as cell-based, Escherichia coli. Particulars: Escherichia coli, 3 h, 50 μM final drug concentration.
[3] abbreviates: 384-well format, cutoff for positive-scoring molecules 3-fold increase, read-out: AK-based Prestwick Library Screening Results, E. faecium (increase in extracellular AK activity).
Where [4] appears, read: 384-well format, cutoff for positive-scoring molecules 3-fold increase, read-out: AK-based Prestwick Library Screening Results, S. aureus (increase in extracellular AK activity).
Where [5] appears, read: 384-well format, cutoff for positive-scoring molecules 3-fold increase, read-out: AK-based Prestwick Library Screening Results, K. pneumoniae (increase in extracellular AK activity).
[6] abbreviates: 384-well format, cutoff for positive-scoring molecules 3-fold increase, read-out: AK-based Prestwick Library Screening Results, A. baumannii (increase in extracellular AK activity).
Where [7] appears, read: 384-well format, cutoff for positive-scoring molecules 3-fold increase, read-out: AK-based Prestwick Library Screening Results, P. aeruginosa (increase in extracellular AK activity).
[8] abbreviates: 384-well format, cutoff for positive-scoring molecules 3-fold increase, read-out: AK-based Prestwick Library Screening Results, E. cloacae (increase in extracellular AK activity).
Where [9] appears, read: 384-well format, cutoff for positive-scoring molecules 3-fold increase, read-out: AK-based Prestwick Library Screening Results, E. coli (increase in extracellular AK activity).
Setting [10] is: planktonic E. faecium, 384-well, cutoff for positive-scoring molecules 3-fold increase, read-out: AK-based Prestwick Library Screening Results: E. faecium (increase in extracellular AK activity).
Where [11] appears, read: planktonic S. aureus, 384-well, cutoff for positive-scoring molecules 3-fold increase, read-out: AK-based Prestwick Library Screening Results: S. aureus (increase in extracellular AK activity).
Setting [12] is: planktonic K. pneumoniae, 384-well, cutoff for positive-scoring molecules 3-fold increase, read-out: AK-based Prestwick Library Screening Results: K. pneumoniae (increase in extracellular AK activity).
[13] abbreviates: planktonic A. baumannii, 384-well, cutoff for positive-scoring molecules 3-fold increase, read-out: AK-based Prestwick Library Screening Results: A. baumannii (increase in extracellular AK activity).
Where [14] appears, read: planktonic P. aeruginosa, 384-well, cutoff for positive-scoring molecules 3-fold increase, read-out: AK-based Prestwick Library Screening Results: P. aeruginosa (increase in extracellular AK activity).
The mark [15] stands for this setting: planktonic E. cloacae, 384-well, cutoff for positive-scoring molecules 3-fold increase, read-out: AK-based Prestwick Library Screening Results: E. cloacae (increase in extracellular AK activity).
Setting [16] is: planktonic E. coli, 384-well, cutoff for positive-scoring molecules 3-fold increase, read-out: AK-based Prestwick Library Screening Results: E. coli (increase in extracellular AK activity).

Consider `CN1CCC(=C2c3ccccc3C=Cc3ccccc32)CC1` [Cyproheptadine hydrochloride], for which the fold induction at 50 µM in the test with E. faecium (setting [3]) stood at 0.9; in test [1] (setting [4]), 0.6; with K. pneumoniae (setting [5]), 0.6; in test [2] (setting [6]), 0.9; in the test on P. aeruginosa (setting [7]), 0.9; with E. cloacae (setting [8]), 0.9. Further, in the test with E. coli (setting [9]), the fold induction at 50 µM was found to be 0.9.
In the case of `O=C(O)c1ccccc1C(=O)Nc1ccc(S(=O)(=O)Nc2nccs2)cc1` [Phthalylsulfathiazole], the fold induction at 50 µM with E. faecium (cutoff for positive-scoring molecules 3-fold increase, read-out: AK-based Prestwick Library Screening Results, E. faecium (fold increase in extracellular AK activity)) worked out at 1; in test [1] (cutoff for positive-scoring molecules 3-fold increase, read-out: AK-based Prestwick Library Screening Results, S. aureus (fold increase in extracellular AK activity)), 1.4; with K. pneumoniae (cutoff for positive-scoring molecules 3-fold increase, read-out: AK-based Prestwick Library Screening Results, K. pneumoniae (fold increase in extracellular AK activity)), 1; in test [2] (cutoff for positive-scoring molecules 3-fold increase, read-out: AK-based Prestwick Library Screening Results, A. baumannii (fold increase in extracellular AK activity)) it was 1.4; in the test with P. aeruginosa (cutoff for positive-scoring molecules 3-fold increase, read-out: AK-based Prestwick Library Screening Results, P. aeruginosa (fold increase in extracellular AK activity)), 1; in the test with E. cloacae (cutoff for positive-scoring molecules 3-fold increase, read-out: AK-based Prestwick Library Screening Results, E. cloacae (fold increase in extracellular AK activity)) it was 1.2. Moreover, the fold induction at 50 µM with E. coli (cutoff for positive-scoring molecules 3-fold increase, read-out: AK-based Prestwick Library Screening Results, E. coli (fold increase in extracellular AK activity)) was 1.4.
Take `CC(COc1ccccc1)NC(C)C(O)c1ccc(O)cc1` (stereo not drawn) [Isoxsuprine hydrochloride]: the fold induction at 50 µM with E. faecium (setting [10]) is 1; in test [1] (setting [11]), 1.1; in the test with K. pneumoniae (setting [12]) it was 1; in test [2] (setting [13]), 1.5; in the test on P. aeruginosa (setting [14]), 1.1; in the test with E. cloacae (setting [15]) it was 1.5. The fold induction at 50 µM in the test on E. coli (setting [16]) is 1.1.
Consider `Nc1ccccc1S(N)(=O)=O` [Compound 2-Aminobenzenesulfonamide, 2-Aminobenzenesulfonamide], for which the fold induction at 50 µM in the test on E. faecium (planktonic, cutoff for positive-scoring molecules 3-fold increase, read-out: AK-based Prestwick Library Screening Results, E. faecium (fold increase in extracellular AK activity)) was determined as 0.9; in test [1] (planktonic, cutoff for positive-scoring molecules 3-fold increase, read-out: AK-based Prestwick Library Screening Results, S. aureus (fold increase in extracellular AK activity)), 0.8; in the test with K. pneumoniae (planktonic, cutoff for positive-scoring molecules 3-fold increase, read-out: AK-based Prestwick Library Screening Results, K. pneumoniae (fold increase in extracellular AK activity)) it was 0.7; in test [2] (planktonic, cutoff for positive-scoring molecules 3-fold increase, read-out: AK-based Prestwick Library Screening Results, A. baumannii (fold increase in extracellular AK activity)), 0.9; with P. aeruginosa (planktonic, cutoff for positive-scoring molecules 3-fold increase, read-out: AK-based Prestwick Library Screening Results, P. aeruginosa (fold increase in extracellular AK activity)), 0.9; with E. cloacae (planktonic, cutoff for positive-scoring molecules 3-fold increase, read-out: AK-based Prestwick Library Screening Results, E. cloacae (fold increase in extracellular AK activity)), 1.4. For the same molecule, the fold induction at 50 µM in the test with E. coli (planktonic, cutoff for positive-scoring molecules 3-fold increase, read-out: AK-based Prestwick Library Screening Results, E. coli (fold increase in extracellular AK activity)) was determined as 1.1.
On to `CC(C)NCC(O)COc1cccc2[nH]ccc12` (stereo not drawn) [Pindolol], for which the fold induction at 50 µM in the test with E. faecium (setting [3]) stood at 1; in test [1] (setting [4]), 0.5; in the test on K. pneumoniae (setting [5]), 0.6; in test [2] (setting [6]), 0.5; with P. aeruginosa (setting [7]) it was 0.4; with E. cloacae (setting [8]), 0.4. Moreover, the fold induction at 50 µM in the test with E. coli (setting [9]) turned out to be 0.5.
Regarding `CC(=O)S[C@@H]1CC2=CC(=O)CC[C@]2(C)[C@H]2CC[C@@]3(C)[C@@H](CC[C@@]34CCC(=O)O4)[C@H]12` [Spironolactone], the fold induction at 50 µM amounted to 1 with E. faecium (setting [3]); 1.2 in test [1] (setting [4]); 1 in the test on K. pneumoniae (setting [5]); 1.1 in test [2] (setting [6]); 1 with P. aeruginosa (setting [7]); 1.3 in the test on E. cloacae (setting [8]). The fold induction at 50 µM in the test on E. coli (setting [9]) worked out at 1.4.
Turning to `c1cncc([C@@H]2CCCCN2)c1` [Anabasine], the fold induction at 50 µM in the test on E. faecium (planktonic, […], read-out: AK-based Prestwick Library Screening Results, E. faecium (fold increase in extracellular AK activity)) came to 0.9; in test [1] (planktonic, […], read-out: AK-based Prestwick Library Screening Results, S. aureus (fold increase in extracellular AK activity)), 0.6; in the test with K. pneumoniae (planktonic, […], read-out: AK-based Prestwick Library Screening Results, K. pneumoniae (fold increase in extracellular AK activity)) it was 0.8; in test [2] (planktonic, […], read-out: AK-based Prestwick Library Screening Results, A. baumannii (fold increase in extracellular AK activity)), 0.8; with P. aeruginosa (planktonic, […], read-out: AK-based Prestwick Library Screening Results, P. aeruginosa (fold increase in extracellular AK activity)), 0.9; in the test with E. cloacae (planktonic, […], read-out: AK-based Prestwick Library Screening Results, E. cloacae (fold increase in extracellular AK activity)), 1. Moreover, the fold induction at 50 µM in the test on E. coli (planktonic, […], read-out: AK-based Prestwick Library Screening Results, E. coli (fold increase in extracellular AK activity)) came to 1.
Regarding `COC(=O)Nc1nc2ccc(C(=O)c3ccccc3)cc2[nH]1` [Mebendazole], the fold induction at 50 µM in the test with E. faecium (setting [10]) was found to be 0.9; in test [1] (setting [11]), 0.9; with K. pneumoniae (setting [12]) it was 0.8; in test [2] (setting [13]), 0.7; with P. aeruginosa (setting [14]), 0.8; with E. cloacae (setting [15]), 1.2. In addition, the fold induction at 50 µM in the test with E. coli (setting [16]) came to 0.8.
For `CCC1(c2cccc(O)c2)CCCCN(C)C1` (stereo not drawn) [Meptazinol hydrochloride], the fold induction at 50 µM turned out to be 1.1 in the test on E. faecium (planktonic E. faecium, […], read-out: AK-based Prestwick library screening result, E. faecium (fold increase in extracellular AK activity)); 0.9 in test [1] (planktonic S. aureus, […], read-out: AK-based Prestwick library screening result, S. aureus (fold increase in extracellular AK activity)); 0.9 in the test on K. pneumoniae (planktonic K. pneumoniae, […], read-out: AK-based Prestwick library screening result, K. pneumoniae (fold increase in extracellular AK activity)); 1.1 in test [2] (planktonic A. baumannii, […], read-out: AK-based Prestwick library screening result, A. baumannii (fold increase in extracellular AK activity)); 1.1 with P. aeruginosa (planktonic P. aeruginosa, […], read-out: AK-based Prestwick library screening result, P. aeruginosa (fold increase in extracellular AK activity)); 1.4 in the test with E. cloacae (planktonic E. cloacae, […], read-out: AK-based Prestwick library screening result, E. cloacae (fold increase in extracellular AK activity)). In addition, the fold induction at 50 µM in the test with E. coli (planktonic E. coli, […], read-out: AK-based Prestwick library screening result, E. coli (fold increase in extracellular AK activity)) was 1.3.
